Measurements published in patent US9790229B2, “Bruton's tyrosine kinase inhibitors” (priority 2009, dated 2017).
pIC50: −log10 of the molar value. Read-outs that look alike come from different tables or passages of the source.

Biological target: BTK (Homo sapiens (Human), UniProt Q06187)
Assay: In vitro BTK kinase assay: BTK-POLYGAT-LS ASSAY
[1] = read-out: IC50 (10 uM ATP), 10 uM ATP, in vitro Btk kinase assay, Example 41

Chain of BTK (Q06187 whole entry): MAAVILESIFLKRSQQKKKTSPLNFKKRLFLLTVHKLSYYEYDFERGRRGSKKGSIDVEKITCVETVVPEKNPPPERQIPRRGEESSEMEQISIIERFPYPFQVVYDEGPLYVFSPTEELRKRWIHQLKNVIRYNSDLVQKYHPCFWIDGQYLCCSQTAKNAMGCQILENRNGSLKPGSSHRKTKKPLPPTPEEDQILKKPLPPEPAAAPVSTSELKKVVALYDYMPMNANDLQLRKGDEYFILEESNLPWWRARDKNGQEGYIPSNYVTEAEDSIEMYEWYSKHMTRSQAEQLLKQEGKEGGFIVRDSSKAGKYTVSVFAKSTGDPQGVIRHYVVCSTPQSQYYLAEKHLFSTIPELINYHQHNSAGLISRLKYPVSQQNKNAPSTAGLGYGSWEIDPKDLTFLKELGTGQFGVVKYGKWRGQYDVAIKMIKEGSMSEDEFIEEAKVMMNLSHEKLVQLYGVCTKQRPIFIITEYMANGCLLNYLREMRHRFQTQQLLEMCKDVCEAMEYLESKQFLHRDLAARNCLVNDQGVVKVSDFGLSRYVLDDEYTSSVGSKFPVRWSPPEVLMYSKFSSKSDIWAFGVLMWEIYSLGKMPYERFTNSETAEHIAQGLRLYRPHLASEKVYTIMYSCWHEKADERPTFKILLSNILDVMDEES

SMILES	pIC50 [1]	pIC50
O=C(Nc1ccccc1)Nc1cccc(C2CCCN(c3ncnc4[nH]cnc34)C2)c1 (centres unmarked) [compound 174]	6.00 to 7.00	–
O=C(Nc1cccc(C2CCCN(c3ncnc4[nH]ccc34)C2)c1)Nc1ccccc1N1CCCCC1 (centres unmarked) [compound 175]	–	6.00 to 7.00
CO[C@@H]1CCN(c2ccccc2NC(=O)Nc2cccc(C3CCCN(c4ncnc5[nH]ccc45)C3)c2)C1 (some centres unmarked) [compound 176]	–	6.00 to 7.00
CCC(CC)CNC(=O)Nc1cccc(C2CCCN(c3ncnc4[nH]ccc34)C2)c1 (centres unmarked) [compound 180]	–	6.00 to 7.00
O=C(Nc1cccc(C2CCCN(c3ncnc4[nH]ccc34)C2)c1)Nc1ccccc1F (centres unmarked) [compound 182]	–	5.00 to 6.00
O=C(Nc1cccc(F)c1)Nc1cccc(C2CCCN(c3ncnc4[nH]ccc34)C2)c1 (centres unmarked) [compound 183]	–	5.00 to 6.00
O=C(NCC1(O)CCCCC1)Nc1cccc(C2CCCN(c3ncnc4[nH]ccc34)C2)c1 (centres unmarked) [compound 184]	–	5.00 to 6.00
O=C(Nc1ccc(F)cc1)Nc1cccc(C2CCCN(c3ncnc4[nH]ccc34)C2)c1 (centres unmarked) [compound 185]	–	5.00 to 6.00
CC(C)CCNC(=O)Nc1cccc(C2CCCN(c3ncnc4[nH]ccc34)C2)c1 (centres unmarked) [compound 186]	–	5.00 to 6.00
COc1cccc(NC(=O)Nc2cccc(C3CCCN(c4ncnc5[nH]ccc45)C3)c2)c1 (centres unmarked) [compound 187]	–	5.00 to 6.00
C[C@H]1CCCN1c1ccccc1NC(=O)Nc1cccc(C2CCCN(c3ncnc4[nH]ccc34)C2)c1 (some centres unmarked) [compound 188]	–	5.00 to 6.00
CC(C)(C)c1ccccc1NC(=O)Nc1cccc([C@@H]2CCCN(c3ncnc4[nH]ccc34)C2)c1 [compound 189]	–	5.00 to 6.00
Cc1ccnc(Cl)c1NC(=O)Nc1cccc(C2CCCN(c3ncnc4[nH]ccc34)C2)c1 (centres unmarked) [compound 190]	–	5.00 to 6.00
O=C(Nc1cccc(C2CCCN(c3ncnc4[nH]ccc34)C2)c1)Nc1ccccc1OC(F)F (centres unmarked) [compound 191]	–	5.00 to 6.00
CN(C)[C@H]1CCN(c2ccccc2NC(=O)Nc2cccc(C3CCCN(c4ncnc5[nH]ccc45)C3)c2)C1 (some centres unmarked) [compound 192]	–	5.00 to 6.00
O=C(Nc1cccc(C2CCCN(c3ncnc4[nH]ccc34)C2)c1)NC1CCCC1 (centres unmarked) [compound 193]	–	5.00 to 6.00
O=C(Nc1cccc(C2CCCN(c3ncnc4[nH]ccc34)C2)c1)Nc1c(F)cccc1C(F)(F)F (centres unmarked) [compound 194]	–	5.00 to 6.00
CC(C)(O)c1ccccc1NC(=O)Nc1cccc(C2CCCN(c3ncnc4[nH]ccc34)C2)c1 (centres unmarked) [compound 195]	–	5.00 to 6.00
CC(C)(C)CNC(=O)Nc1cccc(C2CCCN(c3ncnc4[nH]ccc34)C2)c1 (centres unmarked) [compound 196]	–	5.00 to 6.00

SMILES	pIC50 [1]	pIC50
O=C(Nc1cccc(C2CCCN(c3ncnc4[nH]ccc34)C2)c1)Nc1cccnc1F (centres unmarked) [compound 197]	–	5.00 to 6.00
O=C(Nc1cccc(C2CCCN(c3ncnc4[nH]ccc34)C2)c1)Nc1cccnc1O (centres unmarked) [compound 198]	–	5.00 to 6.00
O=C(NC[C@H]1CCCC[C@@H]1O)Nc1cccc(C2CCCN(c3ncnc4[nH]ccc34)C2)c1 (some centres unmarked) [compound 199]	–	5.00 to 6.00
Cc1ccnc(C)c1NC(=O)Nc1cccc(C2CCCN(c3ncnc4[nH]ccc34)C2)c1 (centres unmarked) [compound 200]	–	5.00 to 6.00
COc1ccc(NC(=O)Nc2cccc(C3CCCN(c4ncnc5[nH]ccc45)C3)c2)cc1 (centres unmarked) [compound 201]	–	5.00 to 6.00
O=C(Nc1cccc(C2CCCN(c3ncnc4[nH]ccc34)C2)c1)Nc1cccnc1Cl (centres unmarked) [compound 202]	–	5.00 to 6.00
O=C(Nc1cccc(C2CCCN(c3ncnc4[nH]ccc34)C2)c1)N[C@H](CO)C1CCCCC1 (some centres unmarked) [compound 203]	–	5.00 to 6.00
O=C(Nc1cccc(C2CCCN(c3ncnc4[nH]ccc34)C2)c1)NC1CCC1 (centres unmarked) [compound 204]	–	5.00 to 6.00
O=C(Nc1ccccc1)N[C@@H]1CCCN(C2CCCN(c3ncnc4[nH]ccc34)C2)C1 (some centres unmarked) [compound 205]	–	5.00 to 6.00
Nc1ncnc(N2CCCC(c3cccc(NC(=O)Nc4ccccc4)c3)C2)c1CCC(=O)O (centres unmarked) [compound 206]	–	5.00 to 6.00
CN1CCN(c2ccccc2NC(=O)Nc2cccc(C3CCCN(c4ncnc5[nH]ccc45)C3)c2)CC1 (centres unmarked) [compound 209]	–	5.00 to 6.00
CN(C)[C@@H]1CCN(c2ccccc2NC(=O)Nc2cccc(C3CCCN(c4ncnc5[nH]ccc45)C3)c2)C1 (some centres unmarked) [compound 210]	–	5.00 to 6.00
O=C(Nc1cccc(C2CCCN(c3ncnc4[nH]ccc34)C2)c1)Nc1cccc2cc[nH]c12 (centres unmarked) [compound 211]	–	5.00 to 6.00
CC(C)CNC(=O)Nc1cccc(C2CCCN(c3ncnc4[nH]ccc34)C2)c1 (centres unmarked) [compound 212]	–	5.00 to 6.00
O=C(Nc1cccc(C2CCCN(c3ncnc4[nH]ccc34)C2)c1)N[C@@H](CO)C1CCCCC1 (some centres unmarked) [compound 213]	–	5.00 to 6.00
O=C(NCC1COCCO1)Nc1cccc(C2CCCN(c3ncnc4[nH]ccc34)C2)c1 (centres unmarked) [compound 214]	–	5.00 to 6.00
COc1ncccc1NC(=O)Nc1cccc(C2CCCN(c3ncnc4[nH]ccc34)C2)c1 (centres unmarked) [compound 215]	–	5.00 to 6.00
O=C(NCc1cccc(C2CCCN(c3ncnc4[nH]ccc34)C2)c1)Nc1ccccc1 (centres unmarked) [compound 216]	–	5.00 to 6.00
O=C(NCC1CCCCCC1)Nc1cccc(C2CCCN(c3ncnc4[nH]ccc34)C2)c1 (centres unmarked) [compound 217]	–	5.00 to 6.00

SMILES	pIC50 [1]	pIC50
O=C(NC[C@H]1CCCC[C@H]1O)Nc1cccc(C2CCCN(c3ncnc4[nH]ccc34)C2)c1 (some centres unmarked) [compound 218]	–	5.00 to 6.00
O=C(NCc1ccccc1)Nc1cccc(C2CCCN(c3ncnc4[nH]ccc34)C2)c1 (centres unmarked) [compound 219]	–	5.00 to 6.00
O=C(Nc1ccccc1)N[C@@H]1CCN(C2CCCN(c3ncnc4[nH]ccc34)C2)C1 (some centres unmarked) [compound 220]	–	5.00 to 6.00
CCOC(=O)/C=C/c1c(N)ncnc1N1CCCC(c2cccc(NC(=O)Nc3ccccc3)c2)C1 (centres unmarked) [compound 221]	< 5.00	–
O=C(Nc1cccc(C2CCCN(c3ncnc4[nH]ccc34)C2)c1)Nc1ccncc1Cl (centres unmarked) [compound 222]	< 5.00	–
O=C(NCC1CCOCC1)Nc1cccc(C2CCCN(c3ncnc4[nH]ccc34)C2)c1 (centres unmarked) [compound 223]	< 5.00	–
O=C(Nc1cccc(C2CCCN(c3ncnc4[nH]ccc34)C2)c1)Nc1cnccc1N1CCCC1 (centres unmarked) [compound 224]	< 5.00	–
CN1CCCC(CNC(=O)Nc2cccc(C3CCCN(c4ncnc5[nH]ccc45)C3)c2)C1 (centres unmarked) [compound 225]	< 5.00	–
O=C(Nc1cccc(C2CCCN(c3ncnc4[nH]ccc34)C2)c1)Nc1cccc2[nH]ncc12 (centres unmarked) [compound 226]	< 5.00	–
Cc1cc(NC(=O)Nc2cccc(C3CCCN(c4ncnc5[nH]ccc45)C3)c2)n(-c2ccccc2)n1 (centres unmarked) [compound 227]	< 5.00	–
CN1CCCCC1CNC(=O)Nc1cccc(C2CCCN(c3ncnc4[nH]ccc34)C2)c1 (centres unmarked) [compound 228]	< 5.00	–
O=C(NCC1CCCNC1)Nc1cccc(C2CCCN(c3ncnc4[nH]ccc34)C2)c1 (centres unmarked) [compound 229]	< 5.00	–
Cc1cc(NC(=O)Nc2cccc(C3CCCN(c4ncnc5[nH]ccc45)C3)c2)n(CCN(C)C)n1 (centres unmarked) [compound 230]	< 5.00	–
O=C(NCC1CCNCC1)Nc1cccc(C2CCCN(c3ncnc4[nH]ccc34)C2)c1 (centres unmarked) [compound 231]	< 5.00	–
O=C(Nc1cccc(C2CCCN(c3ncnc4[nH]ccc34)C2)c1)NC1CCCNC1 (centres unmarked) [compound 232]	< 5.00	–
O=C(NCC1CCNC1)Nc1cccc(C2CCCN(c3ncnc4[nH]ccc34)C2)c1 (centres unmarked) [compound 233]	< 5.00	–
O=C(Nc1ccccc1)NC1CN(C2CCCN(c3ncnc4[nH]ccc34)C2)C1 (centres unmarked) [compound 234]	< 5.00	–
CN1CCC(O)(CNC(=O)Nc2cccc(C3CCCN(c4ncnc5[nH]ccc45)C3)c2)CC1 (centres unmarked) [compound 235]	< 5.00	–
